Source: patent US12414961B2, “Substituted nucleosides and nucleotides for treating viral infections” (priority 2013, dated 2025)

Experiments:
[1] = Cytotoxicity (CC50) A204; assay type: cell-based; conditions: human, A204 cells
[2] = Cytotoxicity (CC50) IEC-6; assay type: cell-based; conditions: rat, IEC-6 cells
[3] = Cytotoxicity (CC50) H9c; assay type: cell-based; conditions: rat, H9c cells
[4] = Cytotoxicity (CC50) CEM; conditions: human, CEM cells
[5] = Cytotoxicity (CC50) Huh-7; conditions: human, Huh-7 cells
[6] = Cytotoxicity (CC50) HepG2; conditions: human, HepG2 cells
[7] = Cytotoxicity (CC50) BxPC3; conditions: human, BxPC3 cells
[8] = Cytotoxicity in Vero cells (Dengue assay); conditions: African green monkey
[9] = Cytotoxicity in Huh-7 cells (Dengue assay); conditions: human, Huh-7 cells
[10] = tested on: Dengue Type 2; experiment: Anti-Dengue virus cytoprotection assay, Vero cells; conditions: read-out: Dengue Type 2 Vero Cells (EC50 uM)
[11] = tested on: Dengue Type 2; experiment: Anti-Dengue virus cytoprotection assay, Huh-7 cells; conditions: Huh-7, read-out: Dengue Type 2 Huh-7 Cells (EC50 uM)
[12] = tested on: Huh-7 cells; experiment: Cytotoxicity in Huh-7 cells (Dengue assay); conditions: read-out: CC50 uM; Cell Line Huh-7; […], 3, 4 table
[13] = tested on: HBV; experiment: HBV antiviral assay; assay type: cell-based; conditions: Hepatitis B virus
Description: Ten microliters of cell culture supernatant collected on the sixth day was diluted in qPCR dilution buffer (40 μg/mL sheared salmon sperm DNA) and boiled for 15 minutes. Quantitative real time PCR was performed in […] using an Applied Biosystems 7900HT Sequence Detection System and the supporting SDS 2.4 software. Five microliters (5 μL) of boiled DNA for each sample and serial 10-fold dilutions of a quantitative DNA standard were subjected to real time Q-PCR using Platinum Quantitative PCR SuperMix-UDG (Invitrogen) and specific DNA oligonucleotide primers (IDT, Coralville, […]) HBV-AD38-qF1 (5′-[…] -3′) (SEQ ID NO: 1), HBV-AD38-qR1 (5′-AGT CCA AGA GTY CTC TTA TRY AAG ACC TT-3′) (SEQ ID NO: 2), and HBV-AD38-qP1 (5′-FAM CCG TGT GCA/ZEN/[…] -3′BHQ1) (SEQ ID NO: 3) at a final concentration of 0.2 μM for each primer in a total reaction volume of 15 μL. The HBV DNA copy number in each sample was interpolated from the standard curve by the SDS.24 software and the data were imported into an Excel spreadsheet for analysis.

[14] = Cytotoxicity in HepG2 cells (HBV assay); assay type: cell-based; conditions: human, HepG2.2.15 cells; beside HBV
Description: The 50% cytotoxic concentration for the test materials are derived by measuring the reduction of the tetrazolium dye XTT in the treated tissue culture plates. XTT is metabolized by the mitochondrial enzyme […] to a soluble formazan product in metabolically active cells. […] The 2-4 hour incubation has been empirically determined to be within linear response range for XTT dye reduction with the indicated numbers of cells for each assay. […] Data were collected by Softmax 4.6 software and imported into an Excel spreadsheet for analysis.

[15] = tested on: Adenovirus; experiment: Adenovirus antiviral assay; assay type: cell-based; conditions: unidentified adenovirus
[16] = tested on: Huh-7 cells; experiment: Cytotoxicity in Huh-7 cells (Adenovirus, HSV-1 assays); assay type: cell-based, human; conditions: beside HSV-1
[17] = tested on: HSV-1; experiment: HSV-1 antiviral assay; assay type: cell-based; conditions: Human alphaherpesvirus 1
[18] = tested on: HIV; experiment: HIV infected PBMC assay; assay type: cell-based; conditions: Human immunodeficiency virus 1, PBMC
Description: Fresh human peripheral blood mononuclear cells (PBMCs) were obtained from a commercial source (Biological Specialty) and were determined to be seronegative for HIV and HBV. Depending on the volume of donor blood received, the leukophoresed blood cells were washed several times with PBS. After washing, the leukophoresed blood was diluted 1:1 with Dulbecco's phosphate buffered saline (PBS) and layered over 15 mL of Ficoll-Hypaque density gradient in a 50 ml conical centrifuge tube. These tubes were centrifuged for 30 min at 600 g. Banded PBMCs were gently aspirated from the resulting interface and washed three times with PBS. […] After incubation, PBMCs were centrifuged and resuspended in tissue culture medium. The cultures were maintained until use by half-volume culture changes with fresh IL-2 containing tissue culture medium every 3 days. […]
Following addition of test compound to the wells, 50 uL of a predetermined dilution of HIV virus (prepared from 4× of final desired in-well concentration) was added, and mixed well. […] After 7 days in culture, HIV-1 replication was quantified in the tissue culture supernatant by measurement of reverse transcriptase (RT) activity. […]
Reverse Transcriptase Activity Assay—Reverse transcriptase activity was measured in cell-free supernatants using a standard radioactive incorporation polymerization assay. […]

[19] = Cytotoxicity in PBM cells; assay type: cell-based; conditions: human, peripheral blood mononuclear cells (PBMCs), PHA-P stimulated; beside HIV
[20] = tested on: HCMV; experiment: HCMV antiviral assay; assay type: cell-based; conditions: Human betaherpesvirus 5
[21] = Cytotoxicity in MRC-5 cells (HCMV, VZV assays); assay type: cell-based; conditions: human, MRC-5 cells; beside HCMV
[22] = tested on: MRC-5 Cells; experiment: Cytotoxicity in MRC-5 cells (HCMV, VZV assays); assay type: cell-based; conditions: beside VZV
[23] = tested on: VZV; experiment: VZV antiviral assay; assay type: cell-based; conditions: Human alphaherpesvirus 3

Question: With `CC(C)OC(=O)[C@H](C)NP(=O)(OC[C@H]1O[C@@H](n2ccc(=O)[nH]c2=S)C(C)(O)[C@H]1O)Oc1ccccc1` (some centres unmarked) [drawing 387] as the compound, how does the CC50 [1] read?
Answer: 98 µM

Question: And the CC50 [2]?
Answer: > 200 µM

Question: And the CC50 [3]?
Answer: > 200 µM

Question: What about the CC50 [4] of the same compound?
Answer: > 300 µM

Question: What about the CC50 [5] of the same compound?
Answer: > 400 µM

Question: What about the CC50 [6] of the same compound?
Answer: > 400 µM

Question: And the CC50 [7]?
Answer: > 300 µM

Question: And the CC50 [8]?
Answer: > 100 µM

Question: And the CC50 [9]?
Answer: > 100 µM

Question: What about the EC50 [10] of the same compound?
Answer: 2.02 µM

Question: What about the EC50 [11] of the same compound?
Answer: 5.1 µM

Question: Which CC50 [12] does the source give for `CC(C)OC(=O)[C@H](C)N[P@](=O)(OC[C@H]1O[C@@H](n2ccc(=O)[nH]c2=S)C(C)(O)[C@H]1O)Oc1ccccc1` (some centres unmarked) [drawing 393] here?
Answer: > 100 µM

Question: With `CC(C)OC(=O)[C@H](C)NP(=O)(OC[C@H]1O[C@@H](n2ccc(=O)[nH]c2=S)C(C)(O)[C@H]1O)Oc1ccccc1` (some centres unmarked) [drawing 394] as the compound, how does the EC50 [13] read?
Answer: > 100 µM

Question: What about the CC50 at 6 days [14] of the same compound?
Answer: > 100 µM

Question: What about the EC50 [15] of the same compound?
Answer: > 100 µM

Question: And the CC50 [16]?
Answer: > 100 µM

Question: What about the EC50 [17] of the same compound?
Answer: > 100 µM

Question: And the EC50 [18]?
Answer: > 100 µM

Question: What about the CC50 at 7 days [19] of the same compound?
Answer: > 100 µM

Question: What about the EC50 [20] of the same compound?
Answer: > 100 µM

Question: And the CC50 [21]?
Answer: > 100 µM

Question: What about the CC50 [22] of the same compound?
Answer: > 100 µM

Question: What about the EC50 [23] of the same compound?
Answer: > 100 µM
